In brackets after ≈: the same amount, converted by molar mass. Blank lines part the entries; values can stand above or below the compound they belong to.
Experiments:
Assay in all cases: ≥ marks a high value that may be exact or a test limit, other limits are often not marked, values filed in µg/mL are converted to µM
[1] = test system: Escherichia coli UB1005
[2] = test system: Staphylococcus epidermidis C621
[3] = test system: Corynebacterium xerosis C875
[4] = test system: Escherichia coli DC2
[5] = test system: Staphylococcus aureus
[6] = test system: Bacillus cereus
[7] = test system: Escherichia coli
[8] = test system: Bacillus anthracis
[9] = test system: Stenotrophomonas maltophilia
[10] = test system: Enterococcus faecalis
[11] = test system: Pseudomonas aeruginosa
[12] = test system: Staphylococcus aureus MR
[13] = test system: Acinetobacter baumannii
[14] = test system: Streptococcus pneumoniae
[15] = test system: Serratia marcescens
[16] = test system: Klebsiella pneumoniae
[17] = test system: Enterococcus faecium

MIC [1]: 16 µM (≈ 41.6 µg/mL)
MIC [2]: 0.25 µM (≈ 0.649 µg/mL)
MIC [3]: 0.25 µM (≈ 0.649 µg/mL)
MIC [4]: 8 µM (≈ 20.8 µg/mL)
SMILES: C[C@H](NC(=O)[C@H](C)NC(=O)[C@H](C)NC(=O)[C@H](Cc1c[nH]c2ccccc12)NC(=O)[C@H](C)NC(=O)[C@H](C)NC(=O)[C@H](C)NC(=O)[C@H](CCCCN)NC(=O)[C@@H](N)CCCCN)C(=O)N[C@@H](C)C(=O)N[C@@H](C)C(=O)N[C@@H](Cc1c[nH]c2ccccc12)C(=O)N[C@@H](C)C(=O)N[C@@H](C)C(=O)N[C@@H](Cc1c[nH]c2ccccc12)C(=O)N[C@@H](C)C(=O)N[C@@H](C)C(=O)N[C@@H](Cc1c[nH]c2ccccc12)C(=O)N[C@@H](C)C(=O)N[C@@H](C)C(=O)N[C@@H](C)C(=O)N[C@@H](CCCCN)C(=O)N[C@@H](CCCCN)C(=O)N[C@@H](CCCCN)C(=O)N[C@@H](CCCCN)C(N)=O [KKAAAWAAAAAWAAWAAWAAAKKKK]

SMILES: CC(C)C[C@H](NC(=O)[C@H](C)NC(=O)[C@H](CO)NC(=O)[C@H](Cc1ccccc1)NC(=O)[C@@H](NC(=O)[C@H](CO)NC(=O)[C@@H]1CCCN1C(=O)[C@@H](NC(=O)[C@@H](NC(=O)[C@H](CCCCN)NC(=O)[C@H](CO)NC(=O)[C@H](C)NC(=O)[C@H](CC(C)C)NC(=O)[C@H](CCCCN)NC(=O)[C@H](Cc1ccccc1)NC(=O)[C@@H](NC(=O)[C@H](Cc1ccccc1)NC(=O)[C@@H](N)CO)C(C)C)C(C)C)C(C)C)C(C)C)C(=O)N[C@H](C(=O)N[C@@H](CCCN=C(N)N)C(=O)O)[C@@H](C)O [SFVFKLASKVVPSVFSALTR]
MIC [5]: 117 µM
MIC [6]: ≥ 117 µM
MIC [7]: 117 µM
MIC [8]: ≥ 58.6 µM

SMILES: CC[C@H](C)[C@H](NC(=O)[C@H](CC(C)C)NC(=O)[C@H](C)NC(=O)[C@@H]1CCCN1C(=O)[C@H](C)NC(=O)[C@@H](NC(=O)[C@H](CCCCN)NC(=O)[C@@H](N)CCCN=C(N)N)C(C)C)C(=O)N[C@@H](CCCCN)C(=O)N[C@@H](CO)C(=O)N[C@@H](Cc1ccccc1)C(=O)N[C@H](C(=O)N[C@@H](Cc1ccccc1)C(=O)N[C@@H](CC(C)C)C(=O)N[C@@H](Cc1ccccc1)C(=O)N[C@@H](CCCCN)C(=O)N[C@@H](Cc1ccccc1)C(=O)N[C@@H](CCCCN)C(=O)N[C@@H](CCCCN)C(=O)NCC(=O)O)C(C)C [RKVAPALIKSFVFLFKFKKG]
MIC [5]: 55.1 µM (≈ 128 µg/mL)
MIC [6]: ≥ 110 µM
MIC [7]: > 110 µM
MIC [8]: ≥ 110 µM

MIC [9]: 12.7 µM (≈ 32 µg/mL)
MIC [5]: 4.47 µM (≈ 11.3 µg/mL)
MIC [10]: 4.47 µM (≈ 11.3 µg/mL)
MIC [11]: 12.7 µM (≈ 32 µg/mL)
MIC [12]: 4.47 µM (≈ 11.3 µg/mL)
MIC [13]: 12.7 µM (≈ 32 µg/mL)
MIC [14]: 4.47 µM (≈ 11.3 µg/mL)
MIC [15]: 8.95 µM (≈ 22.6 µg/mL)
MIC [16]: 4.47 µM (≈ 11.3 µg/mL)
MIC [7]: 3.16 µM (≈ 7.99 µg/mL)
MIC [17]: 12.7 µM (≈ 32 µg/mL)
SMILES: CC[C@H](C)[C@H](NC(=O)[C@@H](NC(=O)[C@H](CCCCN)NC(=O)[C@H](CS)NC(=O)[C@H](CCCCN)NC(=O)[C@H](CCCN=C(N)N)NC(=O)[C@H](CC(C)C)NC(=O)[C@@H](NC(=O)[C@H](CCCCN)NC(=O)[C@@H](NC(=O)[C@H](CC(C)C)NC(=O)[C@H](C)NC(=O)[C@@H](NC(=O)[C@H](Cc1ccccc1)NC(=O)CNC(=O)[C@@H]1CCCN1C(=O)[C@@H]1CCCN1C(=O)[C@@H](NC(=O)[C@H](CCC(=O)O)NC(=O)[C@H](CCCN=C(N)N)NC(=O)[C@H](CC(N)=O)NC(=O)[C@@H](N)CCC(=O)O)C(C)C)[C@@H](C)O)[C@@H](C)CC)[C@@H](C)O)[C@@H](C)CC)C(=O)O [ENREVPPGFTALIKTLRKCKII]
